# Values of other authors in patent publication US20150290251A1, “USE OF EGGSHELL MEMBRANE FORMULATIONS TO ALLEVIATE JOINT PAIN” (U.S. NUTRACEUTICALS, LLC d/b/a Valensa International, priority 2009, published 2015).
# Assays:
# [1] = system: lens epithelial cells; conditions: in vitro lens epithelial cells; umol/L concentrations
# [2] = system: C-Reactive Protein (CRP); conditions: human subjects with high risk levels of CRP; three months of treatment
# [3] = system: cellular membrane lipid peroxidation
# [4] = compared with alpha-tocopherol
# [5] = human trials; 4 mgs/day; compared to untreated subjects
# [6] = system: NO, PGE-2 and TNF-Alpha; conditions: induced uveitis; suppression of NO, PGE-2 and TNF-Alpha by directly blocking NO synthase activity
compound,measurement,setting,value
"CC1=C(/C=C/C(C)=C/C=C/C(C)=C/C=C/C=C(C)/C=C/C=C(C)/C=C/C2=C(C)C(=O)C(O)CC2(C)C)C(C)(C)CC(O)C1=O (stereo not drawn) [Astaxanthin, 3,3′-dihydroxy-β, β-carotene-4, 4′dione]",suppression of UVB induced lipid peroxidative mediated cell damage,[1],dramatically suppresses
same,patients whose serum CRP levels dropped below the risk level,[2],43 % of patients
same,effect on pro-oxidant activity of Vioxx,[3],completely negates
same,ability to quench singlet oxygen relative to alpha-tocopherol,[4],over five hundred times
same,prevention of joint pain following strenuous knee exercise,[5],completely prevented
same,ocular anti-inflammatory activity,[6],dose dependent ocular anti-inflammatory activity
